Laboratory results taken from US6416737B1, “Increasing bone strength with selected bisphosphonates” (Board of Trustees of the University of Arkansas, priority 1998, dated 2002).

How the values were obtained:
[1] = cited from earlier work
ERK1/2 = ERK1/2 phosphorylation in MLO-Y4 cells by Western blot; format: cell-based, murine; details: 10^−7 M
Experimental: Monolayers were washed with cold 20 mM Tris-HCl (pH 7.5), 150 mM NaCl, 1 mM sodium orthovanadate and lysed in the lysis buffer mentioned above. Insoluble material was pelleted in a microcentrifuge at 14,000×rpm for 10 mn. […] Proteins (10 μg) were separated on 7.5% SDS-polyacrylamide gels and electrotransferred to a polyvinylidene difluoride membrane. Immunoblotting was performed using a mouse monoclonal antibody recognizing tyrosine phosphorylated ERK1/2, or a rabbit polyclonal antibody recognizing total ERK1/2, followed by incubation with either an antimouse or an antirabbit antibody conjugated with horseradish peroxidase. Blots were developed using Chemiluminescence according to the manufacturer's recommendations. Quantitation of the intensity of the bands in the autoradiograms was performed using a scanner (Microtek Lab., Redondo Beach, Calif.).

MLO-Y4 osteocytic cells = details: for inhibition of glucocorticoid-induced apoptosis: then dexamethasone 10^−6 M for 6 h
Experimental: The murine long bone-derived osteocytic cell line MLO-Y4 was provided by Dr. Lynda Bonewald (University of Texas Health Center at San Antonio, Tex.). Cells were cultured in phenol red-free αMEM supplemented with 5% FBS, 5% bovine calf serum, 100 U/ml penicillin and 100 μg/ml streptomycin. Cells were plated at 1-2×10^4 cells/cm^2 on collagen type I coated plates, as described previously (Kato, et al., 1997. J. Bone Miner. Res. 12:2014-2023). Murine calvaria cells were obtained from neonatal (3- to 6-day old) C57BL/6J mice by controlled digestion with collagenase, as previously described (Bellido, et al., 1997. Endocrinology 138:3666-3676). After isolation, cells were cultured in 10% FBS at 1-2×10^4 cells/cm^2 until 90-95% confluence. Subsequently, cells were harvested and frozen for later use. UMR-106-06 cells were cultured in phenol red-free MEM supplemented with 10% FBS, 1% non-essential aminoacids, 100 U/ml penicillin, and 100 μg/ml streptomycin (Sakagami, et al., Manolagas. 1993. J. Bone Miner. Res. 8:811-816).
Nonadherent cells were combined with adherent cells released from the culture dish using trypsin-EDTA, resuspended in medium containing serum, and collected by centrifugation. […] At least 100 cells per condition were counted.
(§1) MLO-Y4 osteocytic cells and calvaria osteoblastic cells were treated for 1 hour in the absence or presence of different BPs or sCT. Subsequently, dexamethasone, etoposide or TNF-α were added to obtain final concentrations of 10^−6 M, […], or 1 nM, respectively, and cells were incubated for additional 6 h. The effect of PD98059 (50 μM) or UO126 (1 μM) was evaluated by pretreating the cells with the inhibitors for 30 min before adding the BPs or sCT. In the experiment using the membrane permeable caspase inhibitor DEVD, cells were cultured for 1 hour with 50 nM DEVD-CHO and subsequently the pro-apoptotic agents were added to reach the final concentrations indicated above. […] At least 500 cells from fields selected by systematic random sampling were examined for each experimental condition. […] The TUNEL reaction was performed according to the manufacturer's instructions, using 0.15% CuSO4 for color enhancement. Negative controls were made by omitting the transferase from the reaction. Cells presenting brown nuclear staining were considered positive. More than 500 cells per condition were analyzed. Apoptosis of parental MLO-Y4 or calvaria cells was quantified by trypan blue staining (Jilka, et al., 1998. J. Bone Miner. Res. 13:793-802). Nonadherent cells were combined with adherent cells released from the culture dish using trypsin-EDTA, resuspended in medium containing serum, and collected by centrifugation. […] At least 100 cells per condition were counted.
MLO-Y4 cells were incubated for 1 h in vehicle or 50 nM DEVD-CHO. Subsequently, etoposide, TNF-α, or dexamethasone (Dex) were added at final concentrations of 50 μg/ml, 1 nM, or 10^−6 M, respectively, and cells were incubated for additional 6 h. Dead cells were enumerated by trypan blue uptake.
The percentage of dead cells was determined by trypan blue uptake, as in Methods and Materials. Bars represent the mean ±S.D. of three independent measurements.
Subsequently, etoposide, TNF-α, or dexarnethasone were added to reach final concentrations of 50 μg/ml, 1 nM, or 10^−6 M, respectively, and cells were cultured for 6 h, as in FIG. 1. The percentage of dead cells was determined by trypan blue uptake. Bars represent the mean ±S.D. of three independent measurements. Data were analyzed by two-way ANOVA.

[2] = test system: osteocyte and osteoblast apoptosis in murine vertebral cancellous bone; assay: Murine model of glucocorticoid excess: TUNEL in vertebral bone sections and spinal BMD by DEXA; format: in vivo, Male Swiss Webster mice; details: alendronate beginning 3 days before prednisolone pellets
From the text: To adjust for the difference in the metabolic rate in mice compared to that in humans, the daily glucocorticoid dose was divided by the metabolic weight, i.e. the weight in kg to the 3/4 power (Borchard, et al., 1992. Drug dosage in laboratory animals: a handbook. CRC Press, Inc., Boca Raton, Fla. 514 pp.; Kleiber, M. 1961. The fire of life: an introduction to animal energetics. New York). […] One control group received saline injections with placebo pellet implantation while another group received saline injections plus prednisolone pellets. Dual-energy X-ray absorptiometry (DEXA) was used to determine spinal bone mineral density (spinal BMD) at the end of the 56-day experiment, as previously described (Weinstein et al., 1998. J. Clin. Invest. 102:274-282).
Sections of vertebral bone (L1 to L5) were mounted on silane-coated glass slides (Scientific Device Lab, Inc., Des Plains, Ill.), deplasticized and incubated in 10 mM citrate buffer, pH 7.6, in a microwave oven at 98° C. for 5 minutes (Jilka, et al., 1998. J. Bone Miner. Res. 13:793-802). Slides were then incubated with 0.5% pepsin for 30 minutes at 37° C. Apoptotic cells were detected by the TUNEL reaction as described above using 0.15% CuSO4 for color enhancement of the diaminobenzidine in sections counterstained with 1% methyl green. The TUNEL reaction is noted within cell nuclei and the cells whose nuclei were clearly brown from the streptavidin-horse radish peroxidase conjugate instead of blue-green from the methyl green were interpreted as positive. Plastic-embledded sections of weaned rat mammary tissue were used as a positive control. Negative controls were made by omitting the transferase from the TUNEL reaction. Morphological changes characteristic of apoptosis were carefully examined to minimize ambiguity regarding the interpretation of results. […] Osteocytes were identified inside lacunae in mineralized bone (FIG. 11A). Osteoblasts were identified as cuboidal cells lining the osteoid-covered trabecular perimeter (FIG. 11B).

osteocytic MLO-Y4 cells = assay: TUNEL reaction in MLO-Y4 cells; format: cell-based, murine; details: 10^−7 M alendronate 1 h and/or 10^−6 M dexamethasone 6 h
Experimental: as §1

[3] = test system: osteoblastic cells derived from murine calvaria; assay: Apoptosis of osteoblastic cells derived from murine calvaria by trypan blue uptake; format: cell-based; details: 10^−7 M, 1 h pretreatment; 6 h
[4] = rats, intravenously; cited from earlier work
osteoblast apoptosis = details: intermittent PTH administration in mice; decreased from 1.7-2.2%; cited from earlier work

Experimental for caspase-3: Caspase-3 activity was measured by determining the degradation of the fluorometric substrate DEVD, that contains acid sequence of the caspase-3 cleavage site in poly(ADP-ribose)polymerase (PARP) (Schlegel, et al., 1996. J. Biol. Chem. 271:1841-1844) conjugated with 7-amino-4-trifluoromethyl coumarin (DEVD-AFC). Cells were lysed in 20 mM Tris-HCl (H 7.5), 150 mM NaCl, 1 mM EDTA, 10 mM NaF, 1 mM sodium orthovanadate, 5 μg/ml leupeptin, 0.14 U/ml aprotinin, 1 mM phenylmethylsulfonylfluoride, and 1% Triton X-100. Protein concentration was measured using a Bio-Rad detergent compatible kit (Hercules, Calif.). Lysates (100 μg protein) were incubated with 50 μM DEVD-AFC in 50 mM HEPES, pH 7.4, 100 mM NaCl, 0.1% CHAPS, 10 mM DTT, 1 mM EDTA, 10% glycerol, in the absence or presence of the irreversible inhibitor DEVD-CHO for 60 min. The released fluorescent AFC was measured in a microplate fluorescence reader FL500 (Bio Tek Instruments, Winooski, Vt.) with excitation/emission wavelengths of 340/542 nm.
Caspase-3 activity was determined by measuring the degradation of the fluorometric substrate DEVD-AFC in the absence or presence of the irreversible inhibitor DEVD-CHO, as detailed in Example 5.

Molecule: CC(O)(P(=O)(O)O)P(=O)(O)O [etidronate]
- reduction of resorption depth in human iliac trabecular bone ([1]; after one year of treatment): ~30%
- phosphorylation of ERK 1 and 2 (ERK1/2): increase in the phosphorylated fraction of ERKs
- inhibition of glucocorticoid-induced apoptosis (MLO-Y4 osteocytic cells; 1 h pretreatment): Comparable responses

Molecule: NCCCC(O)(P(=O)(O)O)P(=O)(O)O [alendronate, 4-amino-1-hydroxybutylidene-1,1-bisphosphonate]
- bone loss induced by the glucocorticoid [2]: prevented the bone loss
- increase in bone cell apoptosis induced by the glucocorticoid [2]: abolished the increase in bone cell apoptosis
- % of TUNEL positive cells (osteocytic MLO-Y4 cells): 6.16%
- Number of TUNEL positive cells (osteocytic MLO-Y4 cells): 35
- number of TUNEL negative cells (osteocytic MLO-Y4 cells): 533
- earliest time at which increased ERK phosphorylation was observed (ERK1/2): 0.5 min
- phosphorylation of ERK 1 and 2 (ERK1/2): rapid and transient increase
- inhibition of apoptosis of osteoblastic cells induced by dexamethasone, TNF-α and etoposide [3]: inhibited apoptosis
- dexamethasone-induced increase in caspase-3 activity (caspase-3; 10^−7 M alendronate 1 h, then 10^−6 M dexamethasone 16 h): inhibited the dexamethasone-induced increase in caspase-3 activity
- caspase-3 activity, TUNEL positive cells and number of living cells (caspase-3; alendronate alone, absence of dexamethasone): did not affect any of these parameters
- number of living MLO-Y4 cells (MLO-Y4 osteocytic cells; 10^−6 M dexamethasone 24 h, 10^−7 M alendronate 1 h pretreatment): abolished this effect
- prevention of apoptosis induced by etoposide or TNF-α (MLO-Y4 osteocytic cells; 10^−7 M, 1 h pretreatment, 6 h): prevented apoptosis
- cell viability in the absence of pro-apoptotic stimuli (MLO-Y4 osteocytic cells; 10^−10 to 10^−3 M): did not affect cell viability
- inhibition of glucocorticoid-induced apoptosis (MLO-Y4 osteocytic cells; 1 h pretreatment): Comparable responses

Molecule: CC(=O)N[C@@H](CS)C(=O)O [N-acetylcysteine, acetarnido-mercaptopropionic acid]
- LD50 [4]: 1140 mg/kg

Molecule: [F-].[Na+] [sodium fluoride]
- increase in vertebral bone mass ([1]; for at least four years): 10 % a year

B1: PTH: parathyroid hormone, intermittent administration (protein, UniProt P01270 32-115, looked up)
Parathyroid hormone: SVSEIQLMHNLGKHLNSMERVEWLRKKLQDVHNFVALGAPLAPRDAGSQRPRKKEDNVLVESHEKSLGEADKADVNVLTKAKSQ
modifications: Parathyroid hormone
notes: parathyroid hormone, intermittent administration
- prevalence of osteoblast apoptosis (osteoblast apoptosis): 0.1-0.4%
